Data published in patent publication US5486517A, “Benzimidazoles and imidazopyridines as central nervous system agents” (Warner-Lambert Company, priority 1994, dated 1996).
Like-named read-outs stand apart in the source and are kept apart here.

How the values were obtained:
Human D3 Receptors = biological target: T1, Human D3 Receptors (Homo sapiens, UniProt P35462); test: Inhibition of [^3 H]spiperone binding to human D3 receptors
T1 construct: expressed in transfected cells
From the text: Dopamine D2 antagonists are established as antipsychotic agents. More recently, the dopamine D3 receptor has been identified. On the basis of the localization of the dopamine D3 receptor in the limbic area of the brain, a selective D3 antagonist should show antipsychotic activity but not have the neurological side effects of D2 antagonists. […] The above test methods are incorporated herein by reference.

Human D2 Receptors = biological target: T2, Human D2 Receptors (Homo sapiens, UniProt P14416); test: Inhibition of [^3 H]spiperone binding to human D2 receptors
T2 construct: expressed in transfected cells
T2 sequence (P14416 whole entry): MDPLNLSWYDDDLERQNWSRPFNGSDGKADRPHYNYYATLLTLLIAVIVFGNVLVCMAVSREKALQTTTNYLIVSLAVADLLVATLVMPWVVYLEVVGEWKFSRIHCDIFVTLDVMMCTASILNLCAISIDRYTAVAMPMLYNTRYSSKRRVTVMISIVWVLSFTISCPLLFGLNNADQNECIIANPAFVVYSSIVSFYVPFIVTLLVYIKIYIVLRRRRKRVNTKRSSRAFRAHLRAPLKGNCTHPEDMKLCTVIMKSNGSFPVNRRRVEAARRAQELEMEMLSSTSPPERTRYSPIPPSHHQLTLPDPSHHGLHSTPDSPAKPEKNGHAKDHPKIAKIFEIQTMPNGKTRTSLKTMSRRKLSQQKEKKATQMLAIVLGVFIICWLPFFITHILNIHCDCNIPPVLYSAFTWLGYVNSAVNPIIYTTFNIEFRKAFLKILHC
From the text: (§1) The compounds of Formula I are valuable dopaminergic agents. Dopamine D2 antagonists are established as antipsychotic agents. More recently, the dopamine D3 receptor has been identified. On the basis of the localization of the dopamine D3 receptor in the limbic area of the brain, a selective D3 antagonist should show antipsychotic activity but not have the neurological side effects of D2 antagonists. The tests employed indicate that compounds of Formula I bind selectively to the dopamine D3 receptor. Thus, the compounds of Formula I were tested for their ability to bind to dopamine receptors as measured by their inhibition of [^3 H]spiperone binding to the human D2 and D3 receptors in a receptor assay described by MacKenzie R. G., et al., Characterization of the human D3 dopamine receptor expressed in transfected cell lines, Eur. J. Pharmacol., 266:79 (1994); and for their ability to inhibit locomotor activity in mice and rats, a measure of antipsychotic activity, according to the assay described by McLean J. R., et al., Pharmacology, Biochemistry and Behavior, 8:97-99 (1978). The above test methods are incorporated herein by reference.

[1] = tested on: Locomotor Activity in Rats; test: Inhibition of locomotor activity in rats; assay type: in vivo; settings: Rattus norvegicus, IP
From the text: as §1

[2] = human D3, transfected cell lines, read-out: Inhibition of [^3 H]Spiperone Binding to Human D3 Receptors IC50
[3] = human D2, read-out: Inhibition of [^3 H]Spiperone Binding to Human D2 Receptors IC50

T1 sequence (P35462 whole entry): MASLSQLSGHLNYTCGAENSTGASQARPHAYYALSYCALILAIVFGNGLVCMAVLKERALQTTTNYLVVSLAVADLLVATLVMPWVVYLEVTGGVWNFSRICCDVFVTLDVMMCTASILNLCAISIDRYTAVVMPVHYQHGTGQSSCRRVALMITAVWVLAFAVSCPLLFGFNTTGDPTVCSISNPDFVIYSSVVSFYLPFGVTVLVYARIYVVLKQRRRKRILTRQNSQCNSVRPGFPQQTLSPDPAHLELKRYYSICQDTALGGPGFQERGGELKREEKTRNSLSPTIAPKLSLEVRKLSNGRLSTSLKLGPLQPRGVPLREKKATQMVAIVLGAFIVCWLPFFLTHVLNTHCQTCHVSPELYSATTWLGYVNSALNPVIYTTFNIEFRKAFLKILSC

IC50 (Human D3 Receptors; [2])	IC50 (Human D2 Receptors; [3])	Compound	further results
81 nM	100 nM	C(=C/c1ccc(-c2nc3ccccc3[nH]2)cc1)/CCN1CCN(c2ccccc2)CC1 [Example 21, (Z)-2-[4-[4-(4-Phenyl-1-piperazinyl)-1-butenyl]phenyl]-1H-benzimidazole]	–
–	281 nM	O=C(NCCN1CCN(c2ccccc2)CC1)c1ccc(-c2nc3ccccc3[nH]2)cc1 [Example 18, 4-(1H-Benzimidazol-2-yl)-N-[2-(4-phenyl-1-piperazinyl)ethyl]benzamide]	–
1.6 nM	22 nM	c1ccc(N2CCN(CCCNc3ccc(-c4nc5ccccc5[nH]4)cc3)CC2)cc1 [Example 17, N-[4-(1H-Benzimidazol-2-yl)phenyl]-4-phenyl-1-piperazine-3-propanamine]	–
3 nM	329 nM	Clc1cccc(N2CCN(CCCOc3ccc(-c4nc5cccnc5[nH]4)cc3)CC2)c1Cl [Example 13, 2-[4-[3-[4-(2,3-Dichlorophenyl)-1-piperazinyl]propoxy]phenyl]-3H-imidazo[4,5-b]pyridine]	ED50 [1]: 4.2 mg/kg
–	1270 nM	Clc1cccc(N2CCN(CCCOc3ccc(-c4nc5ccccc5[nH]4)cc3)CC2)c1 [Example 12, 2-[4-[3-[4-(3-Chlorophenyl)-1-piperazinyl]-propoxy]phenyl]-1H-benzimidazole]	–
–	784 nM	Clc1ccc(N2CCN(CCCOc3ccc(-c4nc5ccccc5[nH]4)cc3)CC2)cc1 [Example 9, 2-[4-[3-[4-(4-Chlorophenyl)-1-piperazinyl]propoxy]phenyl]-1H-benzimidazole]	–
9.5 nM	219 nM	Cn1c(-c2ccc(OCCCN3CCN(c4ccccc4)CC3)cc2)nc2ccccc21 [Example 14, 1-Methyl-2-[4-[3-(4-phenyl-1-piperazinyl)-propoxy]phenyl]-1H-benzimidazole]	–
24 nM	55 nM	COc1ccccc1N1CCN(CCNC(=O)c2ccc(-c3nc4ccccc4[nH]3)cc2)CC1 [Example 20, 4-(1H-Benzimidazol-2-yl)-N-[2-[4-(2-methoxyphenyl)-1-piperazinyl]ethyl]benzamide]	–
–	70 nM	c1ccc(N2CCN(CCCOc3ccc(-c4nc5ccccc5[nH]4)cc3)CC2)nc1 [Example 3, 2-[4-[3-[4-(2-Pyridinyl)-1-piperazinyl]propoxy]phenyl]-1H-benzimidazole]	–
–	269 nM	c1cnc(N2CCN(CCCOc3ccc(-c4nc5ccccc5[nH]4)cc3)CC2)nc1 [Example 4, 2-[4-[3-[4-(2-Pyrimidinyl)-1-piperazinyl]propoxy]phenyl]-1H-benzimidazole]	–
–	3.7 nM	CCCSc1ccccc1N1CCN(CCCOc2ccc(-c3nc4ccccc4[nH]3)cc2)CC1 [Example 7, 2-[4-[3-[4-[2-(Propylthio)phenyl]-1-piperazinyl]propoxy]phenyl]-1H-benzimidazole]	–
19 nM	119 nM	CCCSc1ccccc1N1CCN(CCNC(=O)c2ccc(-c3nc4ccccc4[nH]3)cc2)CC1 [Example 19, 4-(1H-Benzimidazol-2-yl)-N-[2-[4-[2-(propylthio)phenyl]-1-piperazinyl]ethyl]benzamide]	–
16 nM	119 nM	Fc1ccc(N2CCN(CCCOc3ccc(-c4nc5ccccc5[nH]4)cc3)CC2)cc1 [Example 6, 2-[4-[3-[4-(4-Fluorophenyl)-1-piperazinyl]propoxy]phenyl]-1H-benzimidazole]	–
–	265 nM	COc1ccc(N2CCN(CCCOc3ccc(-c4nc5ccccc5[nH]4)cc3)CC2)cc1 [Example 11, 2-[4-[3-[4-(4-Methoxyphenyl)-1-piperazinyl]-propoxy]phenyl]-1H-benzimidazole]	–
1.7 nM	581 nM	C(#Cc1ccc(-c2nc3ccccc3[nH]2)cc1)CCN1CCN(c2ccccc2)CC1 [Example 15, 2-[4-[4-(4-Phenyl-1-piperazinyl)-1-butynyl]phenyl]-1H-benzimidazole]	–
1 nM	406 nM	c1ccc(N2CCN(CCCOc3ccc(-c4nc5ccccc5[nH]4)cc3)CC2)cc1 [Example 1, 2-[4-[3-(4-Phenyl-1-piperazinyl)propoxy]phenyl]-1H-benzimidazole]	ED50 [1]: 2.3 mg/kg
1.7 nM	45 nM	Clc1cccc(N2CCN(CCCOc3ccc(-c4nc5ccccc5[nH]4)cc3)CC2)c1Cl [Example 2, 2-[4-[3-[4-(2,3-Dichlorophenyl)-1-piperazinyl]propoxy]phenyl]-1H-benzimidazole]	–
1.3 nM	32 nM	c1ccc(N2CCN(CCCCc3ccc(-c4nc5ccccc5[nH]4)cc3)CC2)cc1 [Example 22, 2-[4-[4-(4-Phenyl-1-piperazinyl)butyl]phenyl]-1H-benzimidazole]	–
–	–	COc1ccccc1N1CCN(CCCOc2ccc(-c3nc4ccccc4[nH]3)cc2)CC1 [Example 10, 2-[4-[3-[4-(2-Methoxyphenyl)-1-piperazinyl]-propoxy]phenyl]-1H-benzimidazole]	IC50 (Human D2 Receptors): 8 nM
102 nM	2780 nM	Cc1ccc(N2CCN(CCCOc3ccc(-c4nc5ccccc5[nH]4)cc3)CC2)cc1 [Example 5, 2-[4-[3-[4-(4-Methylphenyl)-1-piperazinyl]propoxy]phenyl]-1H-benzimidazole]	–

Compound	IC50 (Human D3 Receptors; [2])	IC50 (Human D2 Receptors; [3])	further results
C1=C(c2ccccc2)CCN(CCCOc2ccc(-c3nc4ccccc4[nH]3)cc2)C1 [Example 8, 2-[4-[3-(3,6-Dihydro-4-phenyl-1(2H)-pyridinyl)propoxy]phenyl]-1H-benzimidazole]	–	672 nM	IC50 (Human D3 Receptors): 18 nM
c1ccc(N2CCN(CCCCOc3ccc(-c4nc5ccccc5[nH]4)cc3)CC2)cc1 [Example 16, 2-[4-[4-(4-Phenyl-1-piperazinyl)butoxy]phenyl]-1H-benzimidazole]	1.7 nM	46 nM	–
